# From patent publication US11813277B2, “Methods and agents for modulating inflammation” (The Regents of the University of California, priority 2018, dated 2023)
# Tests used:
# [1] = system: phosphate (Pi) transporter; experiment: Phosphate transporter assay (mitochondrial swelling); type: biochemical, rat; settings: 250 μM etomoxir, 100 μM NEM, 10 μM mersalyl
# Procedure: Phosphate transport was measured by monitoring swelling of de-energized mitochondria in isotonic potassium phosphate medium based upon principles described by Coty, W. A. and Pedersen, P. L. (1975) Phosphate transport in rat liver mitochondria. Kinetics, inhibitor sensitivity, energy requirements, and labeled components. Mol Cell Biochem. 9, 109-24. As the phosphate carrier acts as electroneutral symporter with protons, the process is self-restricting due to generation of an opposing pH gradient. […] In the presence of nigericin, the proton fluxes cycle resulting in electro- and pH-neutral transport of potassium phosphate down its concentration gradient into the mitochondrial matrix, resulting in osmotic accumulation of water. Under these conditions, transport is limited by the activity of phosphate carrier, and can be recorded as mitochondrial swelling (a decrease in light scattering).
# The measurements were performed in an LS-50B spectrofluorometer (Perkin-Elmer) at 540 nm. Assay medium contained 125 mM potassium phosphate, pH 7.2, 0.5 mM EGTA, and 2 μM rotenone. Mouse liver mitochondria (0.5 mg/ml) were treated with 250 μM etomoxir, 100 μM N-ethylmaleimide (NEM) (Klingenberg, M., Durand, R., and Guerin, B. (1974) Analysis of the reactivity of SH-reagents with the mitochondrial phosphate carrier. Eur J Biochem, 42, 135-150) or 10 μM mersalyl (Paradies, G. and Ruggiero, F. M. (1991) Effect of aging on the activity of the phosphate carrier and on the lipid composition in rat liver mitochondria. Arch Biochem Biophys. 284, 332-337) and the reaction was started with 5 μM nigericin. Typical traces from 3 experiments are shown. To establish the maximally swollen state of mitochondria, 80 μg/ml alamethicin was used.
# [2] = system: M(IL-4) polarization of BMDMs; experiment: Flow cytometry of IL-4-associated cell surface markers in BMDMs; type: cell-based, mouse; settings: for number of cells positive for both CD206 and CD71: IL-4; for population of CD206+/CD71+ cells: oxidative phosphorylation inhibitors co-treated with IL-4
# Procedure: (§1) For all gene expression and flow cytometry experiments described below, day 6 BMDM were plated at 3×10^5 cell/well in 12-well plates. The next day, cells were treated with appropriate compounds (and duration as indicated in figures and below) in DMEM supplemented with 5% FBS, 2 mM L-glutamine, 100 units/mL, 100 μg/mL penicillin/streptomycin, 500 μM of sodium pyruvate and 5% v/v conditioned media containing macrophage colony stimulating factor (M-CSF).
# (§2) For flow cytometry experiments involving etomoxir (FIG. 1G, FIG. 2A, FIG. 2D, FIG. 3A, FIG. 3B, FIG. 3G, FIG. 3H): BMDMs were mock-treated (media replacement only) or treated with 20 ng/mL of IL-4±3 μM or 200 μM of etomoxir for 48 hr. When measuring expression of M(IL-4)-associated genes in response to etomoxir (FIG. 1H, FIG. 2B), BMDMs were mock-treated or treated with 20 ng/mL of IL4±etomoxir as indicated for 24 hr.
# (§3) For experiments involving respiratory chain inhibitors: BMDMs were mock-treated (media replacement only) or treated with 20 ng/mL of IL4±1.2 μM oligomycin (Oligo), 200 nM rotenone (Rot), 200 nM antimycin A (AntiA), 100 nM piericidin A (PierA), or 5 μM carboxyatractylate (CAT) for either 24 (FIG. 4G, FIG. 4H, FIG. 6G) or 48 hr (FIG. 4F, FIG. 7D). All inhibitors were given as co-treatments simultaneously with IL-4.
# For experiments involving CoA supplementation (FIG. 10A, FIG. 10B, FIG. 10C, FIG. 10D, FIG. 10E, FIG. 9C, FIG. 9D): BMDMs were mock-treated (media replacement only) or treated with 20 ng/mL of IL4±etomoxir (concentration indicated in figures)±CoA (concentration indicated in figures) for 48 hr. Etomoxir and CoA were given as co-treatments simultaneously with IL-4.
# Prior to FACS analysis, BMDMs were detached using 350 μL of Accutase, followed by two washes with FACS buffer (PBS+1% (v/v) BSA+0.05% (w/v) sodium azide). Anti-mouse CD16/32 antibody was used at a dilution of 1:500, while all other antibodies were used at a dilution of 1:250. All flow cytometry data were captured using BD FACSVerse flow cytometer and analyzed using the FlowJo X 10.0.7r2 software. In all, 2×104 live events were acquired for each sample (gated on DAPIneg). For analysis, CD206+/CD71+ and CD206+/CD301+ populations were gated based on Fluorescence Minus One (FMO) controls.
# [3] = system: Relma, Mgl2, Ym1, Fabp4, Arg1 expression; experiment: qPCR of IL-4-associated genes in BMDMs; type: cell-based, mouse; settings: for IL-4-induced expression of Relma, Ym1, Mgl2: electron transport chain inhibitors
# Procedure: as §1, §2, §3
# RNA was isolated with TRIzol, then cDNA was synthesized with high-capacity cDNA reverse transcription kit. KAPA SYBR FAST qPCR Master Mix kit and a LightCycler 480 were used for quantitative RT-PCR. Fold change related to the control group was calculated using […] with 36b4 as the reference gene.
# BMDMs = experiment: Basal mitochondrial respiration in intact BMDMs; type: cell-based, mouse; settings: 1.2 μM oligomycin, 200 nM rotenone, 200 nM antimycin A, 100 nM piericidin A, 5 μM CAT
# Procedure: All respirometry studies were conducted in either a Seahorse XF96 or XFe96 Analyzer. All experiments were conducted at 37° C., and at pH 7.4 (intact cells) or 7.2 (permeabilized cells and isolated mitochondria). Calculation of respiratory parameters was made according to standard protocols (Divakaruni, A. S., Paradyse, A., Ferrick, D. A., Murphy, A. N., and Jastroch, M. (2014a) Analysis and interpretation of microplate-based oxygen consumption and pH data. Meth. Enzym 547, 509-54), and all rates were corrected for non-mitochondrial respiration/background signal by subtracting the oxygen consumption rate insensitive to rotenone plus antimycin A.
# Respiration in intact BMDMs was measured in medium containing 8 mM glucose, 2 mM glutamine, 2 mM pyruvate, and 5 mM HEPES. Cells were plated at 5.0×10^4 cells/well and assayed after 48 hr. When measuring the response to IL-4, cells were treated with 20 ng/mL of IL-4 24 hr. after initial plating, and respiration was measured the following day (˜48 hr after initial seeding). […]
# [4] = system: adenine nucleotide translocase (ANT); experiment: ATP hydrolysis in isolated mitochondria, intact or alamethicin-permeabilized; type: biochemical, rat
# From the text: ATP hydrolysis in isolated mitochondria (McQuaker, S. J., Quinlan, C. L., Caldwell, S. T., Brand, M. D., and Hartley, R. C. (2013). A prototypical small molecule modulator uncouples mitochondria in response to endogenous hydrogen peroxide production. Chembiochem. 14, 993-1000; Divakaruni, A. S., Andreyev, A. Y., Rogers, G. W., and Murphy, A. N. (2017a) In situ measurements of mitochondrial matrix enzyme activities using plasma and mitochondrial membrane permeabilization agents. Anal. Biochem. 17, 30385-8) was performed in MAS buffer, and stimulated by respiratory chain inhibition (1 μM rotenone and 2 μM antimycin A) followed by addition of excess ATP (25 mM) and uncoupler (1 μM FCCP). Hydrolysis was inhibited by injection of either oligomycin (3 ng/mg mitochondrial protein) or carboxyatractylo side (7.5 ng/mg mitochondrial protein). Rates of extracellular acidification (ECAR, in mpH/min) were converted to proton production rates (PPR, in pmol H+/min) by determining the buffer capacity with sequential injections of HCl and H2SO4 (Mookerjee, S. A., Goncalves, R. L., Gerencser, A. A., Nicholls, D. G., and Brand, M. D. (2015). The contributions of respiration and glycolysis to extracellular acid production. Biochim et Biophys Acta. 1847, 171-81). 10 μg/mL alamethicin was used to permeabilize the mitochondrial inner membrane (1 μg/mg mitochondrial protein).
# LCFA oxidation in BMDMs = experiment: 9,10-3H-palmitate oxidation (3H2O release) in BMDMs; type: cell-based, mouse; settings: 200 nM rotenone or 200 nM antimycin A, IL-4-stimulated
# Procedure: BMDMs at day 6 of differentiation were seeded at 3×10^5 cells/well in 12 well plates in BMDM media. The next day, cells were treated in DMEM containing 25 mM glucose supplemented with 5% FBS, 2 mM L-Glutamax, 100 units/mL, 100 μg/mL penicillin/streptomycin, 1 mM of sodium pyruvate, 1 mM carnitine, and 5% v/v conditioned media containing macrophage colony stimulating factor (M-CSF) under one of 5 conditions: control, 20 ng/mL of IL-4±3 μM or 200 μM of etomoxir, or 200 nM rotenone, or 200 nM antimycin A for 24 hr. Fatty acid oxidation was measured 24 hours later as previously described (Rognstad, R. (1991) Estimation of peroxisomal and mitochondrial fatty acid oxidation in rat hepatocytes using tritiated substrates. Biochem J 279:147-150, 1991; Cha, B. S., Ciaraldi, T. P., Park, K. S., Carter, L., Mudaliar, S. R., and Henry R R. (2005) Impaired fatty acid metabolism in type 2 diabetic skeletal muscle cells is reversed by PPARgamma agonists. Am J Physiol Endocrinol Metab. 289, E151-9) following a fluid change to DMEM with components as described above except 10 mM glucose and 0.2 μCi (final concentration of 5 μM) BSA-conjugated [9,10-3H]palmitic acid. No additional IL-4 was added at the time of this fluid change, but etomoxir, rotenone and antimycin A were added, and the plates were placed in a […] incubator at 37° C. for 3 hr. After incubation, a 100 μL aliquot of the culture medium was passed over an ion-exchange resin, and the column was washed twice with 0.75 ml of water. Free fatty acids were retained by the resin, whereas the tritium hydrolyzed from radiolabeled palmitate catabolism was released as labeled water, which passes freely through the resin, and is subsequently counted for radioactivity. All data are corrected for protein content in each well. There were 3 technical replicates for each condition, and 4 biological replicates arising from 4 separate animals.
# [5] = alamethicin-permeabilized mitochondria
# [6] = intact isolated mitochondria, etomoxir 100 μM, CAT 7.5 ng/mg, oligomycin 3 ng/mg
compound,measurement,setting,value
"CCN1C(=O)C=CC1=O [N-ethyl maleimide, N-ethylmaleimide]",Pi transporter activity (rate of swelling),[1],inhibited the rate of swelling
CC(=O)SCCNC(=O)CCNC(=O)[C@H](O)C(C)(C)COP(=O)(O)OP(=O)(O)OC[C@H]1O[C@@H](n2cnc3c(N)ncnc32)[C@H](O)[C@@H]1OP(=O)(O)O [acetyl CoA],number of cells positive for both CD206 and CD71,[2]; 500 μM acetyl CoA,cannot reproduce the effect of CoA
same,number of cells positive for both CD206 and CD71,"[2]; acetyl CoA with CoA, both 500 μM",counteracts the effect of CoA
same,"expression of Arg1, Mgl2 and Fabp4",[3]; 500 μM acetyl CoA,different effects than CoA
C=C1[C@@H]2CC[C@H]3[C@]4(C)C[C@H](O[C@@H]5O[C@H](CO)[C@@H](OS(=O)(=O)O)[C@H](OS(=O)(=O)O)[C@H]5OC(=O)CC(C)C)CC(C(=O)O)(C(=O)O)[C@H]4CC[C@]3(C2)[C@H]1O [carboxyatractyloside],population of CD206+/CD71+ cells,[2],none of the inhibitors of ATP synthesis or the electron transport chain significantly lowered
same,respiration at 24 hr,BMDMs,strongly reduced respiration
same,ATP hydrolysis,[4]; [5],no effect
same,ATP hydrolysis,[4]; [6],inhibited ATP hydrolysis
COC(CNC(=O)c1ccccc1OCC(=O)O)[CH2][Hg][OH] (stereo not drawn) [mersalyl],Pi transporter activity (rate of swelling),[1],inhibited the rate of swelling
CC[C@H]1/C=C/C=C/C[C@@H](C)[C@H](O)[C@@](C)(O)C(=O)[C@@H](C)[C@H](O)[C@@H](C)C(=O)[C@@H](C)[C@H](O)[C@@H](C)/C=C/C(=O)O[C@@H]2[C@H](C)[C@H](CC1)O[C@]1(CC[C@H](C)[C@H](C[C@@H](C)O)O1)[C@H]2C [oligomycin],population of CD206+/CD71+ cells,[2],none of the inhibitors of ATP synthesis or the electron transport chain significantly lowered
same,respiration at 24 hr,BMDMs,strongly reduced respiration
same,ATP hydrolysis,[4]; [5],remained inhibitory
same,ATP hydrolysis,[4]; [6],inhibited ATP hydrolysis
C/C=C(\C)[C@H](O)[C@H](C)/C=C(C)/C=C/C/C(C)=C/Cc1nc(OC)c(OC)c(O)c1C [piericidin A],population of CD206+/CD71+ cells,[2],none of the inhibitors of ATP synthesis or the electron transport chain significantly lowered
same,"IL-4-induced expression of Relma, Ym1, Mgl2","[3]; IL-4, 24 hr",failed to reduce
same,expression of Ym1 and Arg1,"[3]; mitochondrial inhibitors, IL-4, 24 hr",increased expression
same,respiration at 24 hr,BMDMs,strongly reduced respiration
antimycin A,"3H2O release from 9,10-3H-palmitate",LCFA oxidation in BMDMs,suppressed LCFA oxidation to levels in line with 200 μM etomoxir
same,population of CD206+/CD71+ cells,[2],none of the inhibitors of ATP synthesis or the electron transport chain significantly lowered
same,"IL-4-induced expression of Relma, Ym1, Mgl2","[3]; IL-4, 24 hr",failed to reduce
same,respiration at 24 hr,BMDMs,strongly reduced respiration
